Measurements: patent US20090215742A1, “AMIDE […]” (PFIZER, INC., priority 2005, published 2009)

Biological target: T1, HSP-90 (Homo sapiens, UniProt P07900)
T1 construct: fused on or other part: 6-His tag at the C-terminus
Assay: HSP-90 SPA (scintillation proximity assay) competition binding assay, displacement of tritiated propyl-Geldanamycin
Conditions: for inhibition at 1 µM: read-out: % inhibition @ 1 μM; for inhibition at 10 µM: read-out: % inhibition @ 10 μM

O=C(c1ccc(O)cc1O)N1CCOC(COc2cccc(Cl)c2)C1 (centres unmarked) [Example 110, 4-({2-[(3-chlorophenoxy)methyl]morpholin-4-yl}carbonyl)benzene-1,3-diol] was tested, and the inhibition at 1 µM was 55.3% and the inhibition at 10 µM was 82.8%.
O=C(c1ccc(O)cc1O)N1CCn2cnnc2C1 [Example 136, 4-(5,6-dihydro[1,2,4]triazolo[4,3-a]pyrazin-7(8H)-ylcarbonyl)benzene-1,3-diol] showed an inhibition at 1 µM of 10.4% and an inhibition at 10 µM of 47.8%.
O=C(c1ccc(O)cc1O)N1CCC(COc2ccc(F)cc2Cl)C1 (centres unmarked) [Example 89, 4-({3-[(2-chloro-4-fluorophenoxy)methyl]pyrrolidin-1-yl}carbonyl)benzene-1,3-diol] was tested, and the inhibition at 1 µM was 45.7% and the inhibition at 10 µM was 77.8%.
O=C(c1ccc(O)cc1O)N1CCN(c2cnccn2)CC1 [Example 111, 4-[(4-pyrazin-2-ylpiperazin-1-yl)carbonyl]benzene-1,3-diol] showed an inhibition at 1 µM of 5.9% and an inhibition at 10 µM of 64.2%.
CN(C(=O)c1ccc(O)cc1O)[C@@H]1CCCC[C@H]1O [Example 40, 2,4-dihydroxy-N-(2-hydroxycyclohexyl)-N-methylbenzamide] gave an inhibition at 1 µM of 13.2% and an inhibition at 10 µM of 49.1%.
COc1ccc(Cc2nnc3n2CCN(C(=O)c2ccc(O)cc2O)CC3)cc1 [Example 116, 4-{[3-(4-methoxybenzyl)-5,6,8,9-tetrahydro-7H-[1,2,4]triazolo[4,3-d][1,4]diazepin-7-yl]carbonyl}benzene-1,3-diol] was tested, and the inhibition at 1 µM was 5% and the inhibition at 10 µM was 62.1%.
Compound O=C(c1ccc(O)cc1O)N1CCC(c2ccc(F)cc2)C1 (centres unmarked) [Example 95, 4-{[3-(4-fluorophenyl)pyrrolidin-1-yl]carbonyl}benzene-1,3-diol] has an inhibition at 1 µM of 22.7% and an inhibition at 10 µM of 70.3%.
O=C(c1ccc(O)cc1O)N1CCC(c2cccc(Cl)c2)C1 (centres unmarked) [Example 96, 4-{[3-(3-chlorophenyl)pyrrolidin-1-yl]carbonyl}benzene-1,3-diol] showed an inhibition at 1 µM of 20.8% and an inhibition at 10 µM of 67.6%.
Cc1nc2c(s1)CN(C(=O)c1ccc(O)cc1O)CC2 [Example 104, 4-[(2-methyl-6,7-dihydro[1,3]thiazolo[5,4-c]pyridin-5(4H)-yl)carbonyl]benzene-1,3-diol] showed an inhibition at 1 µM of 33.9% and an inhibition at 10 µM of 74.3%.
With O=C(c1ccc(O)cc1O)N1CCSCC1 [Example 133, 4-(thiomorpholin-4-ylcarbonyl)benzene-1,3-diol] the inhibition at 1 µM was 42.6% and the inhibition at 10 µM was 80%.
With CN(Cc1nc2ccccc2o1)C(=O)c1ccc(O)cc1O [Example 123, N-(1,3-benzoxazol-2-ylmethyl)-2,4-dihydroxy-N-methylbenzamide] the inhibition at 1 µM was 25.5% and the inhibition at 10 µM was 65.6%.
Compound COc1cc(C2=NOC3(COCCN(C(=O)c4ccc(O)cc4O)C3)C2)ccc1F (centres unmarked) [Example 129, 4-{[3-(4-fluoro-3-methoxyphenyl)-1,7-dioxa-2,10-diazaspiro[4.6]undec-2-en-10-yl]carbonyl}benzene-1,3-diol] has an inhibition at 1 µM of 60.5% and an inhibition at 10 µM of 88.5%.
Work on O=C(c1ccc(O)cc1O)N1CCCC(COc2cccc(Cl)c2)C1 (centres unmarked) [Example 59, 4-({3-[(3-chlorophenoxy)methyl]piperidin-1-yl}carbonyl)benzene-1,3-diol] yielded an inhibition at 1 µM of 58.6% and an inhibition at 10 µM of 82.9%.
C[C@H](c1cccc2ccccc12)N(C)C(=O)c1ccc(O)cc1O [Example 81, 2,4-dihydroxy-N-methyl-N-[1-(1-naphthyl)ethyl]benzamide] showed an inhibition at 1 µM of 29% and an inhibition at 10 µM of 73.8%.
Compound Cc1ccc(OC2CCN(C(=O)c3ccc(O)cc3O)CC2)cc1 [Example 74, 4-{[4-(4-methylphenoxy)piperidin-1-yl]carbonyl}benzene-1,3-diol] has an inhibition at 1 µM of 47.7% and an inhibition at 10 µM of 80.7%.
For O=C(c1ccc(O)cc1O)N1CCC(CCc2ccccc2)C1 (centres unmarked) [Example 65, 4-{[3-(2-phenylethyl)pyrrolidin-1-yl]carbonyl}benzene-1,3-diol], the inhibition at 1 µM was 69.7% and the inhibition at 10 µM was 87%.
In the case of C[C@H](c1ccccc1)N(C)C(=O)c1ccc(O)cc1O [Example 67, 2,4-dihydroxy-N-methyl-N-(1-phenylethyl)benzamide], the inhibition at 1 µM is reported as -0.8% and the inhibition at 10 µM is reported as 35.4%.
With O=C1CCCN1Cc1nnc2n1CCN(C(=O)c1ccc(O)cc1O)CC2 [Example 91, 1-{[7-(2,4-dihydroxybenzoyl)-6,7,8,9-tetrahydro-5H-[1,2,4]triazolo[4,3-d][1,4]diazepin-3-yl]methyl}pyrrolidin-2-one] the inhibition at 1 µM was -7.3% and the inhibition at 10 µM was 12.2%.
COc1ccc2oc(N3CCN(C(=O)c4ccc(O)cc4O)CC3)nc2c1 [Example 127, 4-{[4-(5-methoxy-1,3-benzoxazol-2-yl)piperazin-1-yl]carbonyl}benzene-1,3-diol] was tested, and the inhibition at 1 µM was 21.1% and the inhibition at 10 µM was 60.3%.
